Results published in PubChem BioAssay AID330 (DTP/NCI, 2004).
Toxic doses and inconclusive results are not listed. The calls were made as follows: active = survival T/C of 150% or more; inactive = T/C below 125% in these data.

Tested on: P388 leukemia ip, CD2F1 mice, survival T/C
Assay: NCI In Vivo Anticancer Drug Screen. Data for tumor model P388 Leukemia (intraperitoneal) in CD2F1 (CDF1) mice
Conditions: endpoint: median survival time, higher = longer survival
Procedure, shortened: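 Mice carrying the transplanted tumor received test compound or vehicle. Survival was recorded in each group, and the value is the treated-group measurement divided by that of the vehicle-treated control group.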

[1] = dose: 100.0 mg/kg/injection, schedule: Q04DX003 (ip), vehicle: Klucel (hydroxypropylcellulose) (HPC)
[2] = dose: 200.0 mg/kg/injection, schedule: Q04DX003 (ip), vehicle: Klucel (hydroxypropylcellulose) (HPC)
[3] = dose: 50.0 mg/kg/injection, schedule: Q01DX005 (ip), vehicle: saline with Tween-80
[4] = dose: 100.0 mg/kg/injection, schedule: Q01DX005 (ip), vehicle: saline with Tween-80
[5] = dose: 200.0 mg/kg/injection, schedule: Q01DX005 (ip), vehicle: saline with Tween-80
[6] = dose: 60.0 mg/kg/injection, schedule: Q01DX005 (ip), vehicle: saline with Tween-80
[7] = dose: 240.0 mg/kg/injection, schedule: Q01DX005 (ip), vehicle: saline with Tween-80
[8] = dose: 100.0 mg/kg/injection, schedule: Q01DX009 (ip), vehicle: Klucel (hydroxypropylcellulose) (HPC)
[9] = dose: 200.0 mg/kg/injection, schedule: Q01DX009 (ip), vehicle: Klucel (hydroxypropylcellulose) (HPC)
[10] = dose: 25.0 mg/kg/injection, schedule: Q01DX005 (ip), vehicle: saline with Tween-80

Measured: T/C

c1ccc(CNCc2ccccc2)cc1
inactive: dose: 50.0 mg/kg/injection, schedule: Q04DX003 (ip), vehicle: Klucel (hydroxypropylcellulose) (HPC) 95 % of control | [1] 95 % of control | [2] 100 % of control

O=C1CSC(c2ccc([N+](=O)[O-])cc2[N+](=O)[O-])N1c1nncs1 (stereo unspecified)
inactive: [3] 95 % of control | [4] 95 % of control | [5] 95 % of control

CC1(C(=O)O)C2[Se]c3[se]ccc3C2C1(C)C(=O)O (stereo unspecified)
inactive: [3] 104 % of control | [4] 96 % of control | [5] 102 % of control

c1ccc2nc(N3CCCCC3)c(N3CCCCCC3)nc2c1
inactive: dose: 50.0 mg/kg/injection, schedule: Q01DX005 (ip), vehicle: Klucel (hydroxypropylcellulose) (HPC) 97 % of control | dose: 100.0 mg/kg/injection, schedule: Q01DX005 (ip), vehicle: Klucel (hydroxypropylcellulose) (HPC) 100 % of control | dose: 200.0 mg/kg/injection, schedule: Q01DX005 (ip), vehicle: Klucel (hydroxypropylcellulose) (HPC) 99 % of control

C#CC[N+]12CN3CN(CN(C3)C1)C2
inactive: dose: 12.5 mg/kg/injection, schedule: Q01DX009 (ip), vehicle: saline 98 % of control | dose: 25.0 mg/kg/injection, schedule: Q01DX009 (ip), vehicle: saline 99 % of control | dose: 50.0 mg/kg/injection, schedule: Q01DX009 (ip), vehicle: saline 99 % of control | dose: 100.0 mg/kg/injection, schedule: Q01DX009 (ip), vehicle: saline 116 % of control

C#CCSc1n[nH]c(=O)n1C1CCCCC1
inactive: [6] 99 % of control | dose: 120.0 mg/kg/injection, schedule: Q01DX005 (ip), vehicle: saline with Tween-80 106 % of control | [7] 106 % of control

O=C1OC(c2ccccc2)N/C1=C\c1ccc(OCc2ccccc2)c(OCc2ccccc2)c1 (stereo unspecified)
inactive: [1] 94 % of control | [2] 87 % of control | dose: 400.0 mg/kg/injection, schedule: Q04DX003 (ip), vehicle: Klucel (hydroxypropylcellulose) (HPC) 90 % of control

NNC(=O)C(=O)N/N=C(/CC1(O)C(=O)Nc2ccccc21)c1ccc([N+](=O)[O-])cc1 (stereo unspecified)
inactive: [3] 103 % of control | [4] 94 % of control | [5] 90 % of control

CCNc1ccc2c(-c3ccccc3C(=O)O)c3ccc(=[N+](CC)CC)cc-3oc2c1
inactive: [3] 105 % of control | [4] 95 % of control

COC(=O)CCC(Cl)(Cl)Cl
inactive: dose: 50.0 mg/kg/injection, schedule: Q01DX009 (ip), vehicle: Klucel (hydroxypropylcellulose) (HPC) 102 % of control | [8] 102 % of control | [9] 100 % of control

N#CC1C(=O)NC(=O)C(C#N)C1CCc1ccccc1 (stereo unspecified)
inactive: dose: 50.0 mg/kg/injection, schedule: Q01DX009 (ip), vehicle: distilled water + alcohol 103 % of control | dose: 100.0 mg/kg/injection, schedule: Q01DX009 (ip), vehicle: distilled water + alcohol 100 % of control | dose: 200.0 mg/kg/injection, schedule: Q01DX009 (ip), vehicle: distilled water + alcohol 100 % of control

CNC1=C(C)C(=O)C(C)=C(C(C)(C)CC(=O)n2cc(F)c(=O)[nH]c2=O)C1=O
inactive: dose: 100.0 mg/kg/injection, schedule: Q01DX001 (ip), vehicle: saline with Tween-80 117 % of control | dose: 200.0 mg/kg/injection, schedule: Q01DX001 (ip), vehicle: saline with Tween-80 122 % of control

COc1cc2cc3c(c(O)c2c(OC)c1OC)C(=O)CC(C)(C)C3
inactive: [10] 101 % of control | [3] 91 % of control

CC(=O)Oc1cccnc1C(C#N)C#N
inactive: dose: 12.5 mg/kg/injection, schedule: Q01DX005 (ip), vehicle: saline with Tween-80 108 % of control | [10] 94 % of control

CCOC=Nc1c(N)ncnc1Cl
inactive: [8] 102 % of control | [9] 105 % of control | dose: 400.0 mg/kg/injection, schedule: Q01DX009 (ip), vehicle: Klucel (hydroxypropylcellulose) (HPC) 106 % of control

CO[C@@H]1[C@@H](O)c2ccccc2N1C(C)=O
inactive: dose: 60.0 mg/kg/injection, schedule: Q01DX005 (ip), vehicle: saline 104 % of control | dose: 120.0 mg/kg/injection, schedule: Q01DX005 (ip), vehicle: saline 102 % of control | dose: 240.0 mg/kg/injection, schedule: Q01DX005 (ip), vehicle: saline 104 % of control

O=C(c1ccc(Cl)cc1)N1CCN(C(=O)N2CCN(C(=O)N3CCN(C(=O)c4ccc(Cl)cc4)CC3)CC2)CC1
inactive: dose: 3.75 mg/kg/injection, schedule: Q01DX005 (ip), vehicle: saline with Tween-80 99 % of control | dose: 7.5 mg/kg/injection, schedule: Q01DX005 (ip), vehicle: saline with Tween-80 99 % of control | dose: 15.0 mg/kg/injection, schedule: Q01DX005 (ip), vehicle: saline with Tween-80 100 % of control | dose: 30.0 mg/kg/injection, schedule: Q01DX005 (ip), vehicle: saline with Tween-80 89 % of control | [6] 92 % of control | [7] 89 % of control
